Where two headings read alike, the source gives them in different places.
Key:
L5-MG E52D [1] = assay type: physicochemical, human; conditions: bound to L5-MG E52D; for Relative quantum yield, 514 nm / Relative quantum yield, 532 nm / Relative quantum yield, 561 nm: normalized to 633 nm value; for Relative quantum yield, 633 nm: set to 1.00
[2] = tested on: yeast strain JAR200 expressing L5-MG E52D scFv on the cell surface; experiment: Flow cytometric quantification of dyedron binding to yeast displayed L5-MG E52D; assay type: cell-based, Saccharomyces cerevisiae; conditions: for increase in specific brightness (factor), 532 nm vs 635 nm staining ratio / 532 laser median / 635 laser median / 532 laser mean / 635 laser mean: 300 nM dyedron; for increase in specific brightness (factor), 532 nm vs 635 nm staining ratio: live yeast; for 532 laser median / 635 laser median / 532 laser mean / 635 laser mean: 675/50 bandpass, JAR200 L5-MG E52D; for 532 laser mean / 635 laser mean: gated positive population; for FACS532/FACS635: median of stained population - median of unstained control
Procedure: (§1) FIG. 15. Flow cytometric analysis of dyedron-labeled yeast by exciting donor (blue) or acceptor (red). Saccharomyces cerevisiae cells expressing L5-MG E52D on their surface were analyzed essentially as described in WO 08/092,041 and in Szent-Gyorgyi, C.; Schmidt, B. F.; Creeger, Y.; Fisher, G. W.; Zakel, K. L.; Adler, S.; Fitzpatrick, J. A. J.; Woolford, C. A.; Yan, Q.; Vasilev, K. V.; Berget, P. B.; Bruchez, M. P.; Jarvik, J. W.; Waggoner, A. Nature Biotechnology 2008, 26, 235-240. Two aliquots of each stained population and an unstained control (U) were respectively analyzed, exciting at 532 nm (donor) or 635 nm (acceptor), and collecting emission through a 675/50 nm bandpass (BP) filter. Each analysis comprised 100,000 cells. Stained samples contain a sub-population of non-fluorescent cells due to loss of scFv-encoding plasmid, whose signal corresponds to that of unstained samples (marked by thin lines). Controls show virtually no fluorescence generated by dyedrons on cell surfaces in the absence of expressed FAP (Table 3). Unstained cells excited at 532 nm are relatively brighter than those excited at 635 nm due to higher cellular autofluorescence at the shorter wavelength. Doublet stained peaks correspond to unbudded and budded yeast cells, and are typical for such experiments. Separation of the positive cells from negative cells remains essentially constant under 635 nm excitation but increases in proportion to the number of Cy3 donors under 532 nm excitation. The enhanced excitation in the dyedrons results in increased sensitivity in the flow cytometer.

L5-MG E52D [3] = assay type: physicochemical, human; conditions: soluble dyedron/L5-MG E52D complex
L5-MG E52D [4] = assay type: physicochemical, human; conditions: soluble dyedron/L5-MG E52D complex; 620 nm excitation
Procedure: Fluoromodules were assembled as above, and quantum yields based on the acceptor MG excitation band were determined as described using Cy5.18 as the calibration dye (Szent-Gyorgyi, C., et al., Nature Biotechnology 2008, 26, 235-240). Quantum yields determined with 620 nm excitation (Table 2) were essentially the same as unreported quantum yields determined with 590 nm excitation (<5% difference).

L5-MG E52D [5] = assay type: binding, human; conditions: yeast cell surface displayed L5-MG E52D; PBS+
Procedure: Microplate fluorometry was carried out on a Tecan Safire2 microplate reader using 96 well microplates with 5×10^6 yeast cells/well.
Yeast JAR200 cells expressing L5-MG E52D were suspended at 10^7 cells/ml in modified PBS+ buffer in the presence of the indicated dyedron concentrations. Fluorescence was read on a Safire2 plate fluorimeter. KD values reported in Table 2 were determined using GraphPad Prism 4 software fits to the one site hyperbolic binding curves shown here. Under these conditions, KD values below 1 nM cannot be determined precisely. Plateau fluorescence levels correspond closely to the relative fluorescence signals seen in flow cytometric analyses using 635 nm laser excitation of the MG band (Table 3).

[6] = tested on: control strain JAR200 that does not express scFv; experiment: Flow cytometry, control strain that does not express scFv; assay type: cell-based, Saccharomyces cerevisiae; conditions: 300 nM dyedron, 675/50 bandpass
Procedure: as §1

[7] = Donor array fluorescence of Cy3-labeled cystamine core PAMAM dendrimers; assay type: physicochemical
Procedure: To test the impact of high loading on donor array fluorescence, two cystamine core PAMAM dendrimers (Gen2-16 NH2 and Gen3-32 NH2) were labeled with an excess of monoreactive Cy3-NHS ester. After removal of excess dye by gel filtration the resulting macromolecules were analyzed by electrophoresis, and found to have low net mobility. Because each Cy3 molecule carries one net negative charge, a fully modified dendron should have a net charge of −2. […] However, these conjugates allow for the assessment of the potential risk of donor quenching.

selected scFv = experiment: Fluorescence activation of malachite green by selected scFv; assay type: biochemical; conditions: in buffer
[8] = not given; remark: listed apart in the source

SMILES | Relative quantum yield, 514 nm (L5-MG E52D [1]) | Relative quantum yield, 532 nm (L5-MG E52D [1]) | Relative quantum yield, 561 nm (L5-MG E52D [1]) | Relative quantum yield, 633 nm (L5-MG E52D [1]) | increase in specific brightness (factor), 532 nm vs 635 nm staining ratio [2] | 532 laser median [2] | 635 laser median [2] | 532 laser mean [2] | 635 laser mean [2] | FACS532/FACS635 [2] | εmax [M^−1cm^−1] (L5-MG E52D [3]) | εmax [nm] (L5-MG E52D [3]) | φMG (quantum yield for MG excitation peak) (L5-MG E52D [4]) | Kd (L5-MG E52D [5]) [nM] | 532 laser mean [6] | 532 laser median [6] | 635 laser mean [6] | 635 laser median [6] | also measured
CC[N+]1=C(/C=C/C=C2/N(CCCCCC(=O)NCC(CNC(=O)CCCCCN3/C(=C/C=C/C4=[N+](CC)c5ccc(S(=O)(=O)O)cc5C4(C)C)C(C)(C)c4cc(S(=O)(=O)[O-])ccc43)OCC(=O)NCCCOc3ccc(C(=C4C=CC(=[N+](C)C)C=C4)c4ccc(N(C)C)cc4)cc3)c3ccc(S(=O)(=O)[O-])cc3C2(C)C)C(C)(C)c2cc(S(=O)(=O)[O-])ccc21 (centres unmarked) [BCM] | 0.92 | 0.86 | 1.31 | 1.00 | ~3 | 6912 | 2047 | 17894 | 5521 | 3.27 | 290,000 M^−1cm^−1 | 551 | 0.047 | 4 | 113 | 84 | 105 | 64 | 
CCN1/C(=C\C=C\C2=[N+](CCCCCC(=O)NCCNC(=O)CCCOc3ccc(C(=C4C=CC(=[N+](C)C)C=C4)c4ccc(N(C)C)cc4)cc3)c3ccc(S(=O)(=O)[O-])cc3C2(C)C)C(C)(C)c2cc(S(=O)(=O)[O-])ccc21 [CM, 1-{6-[(2-{[4-(4-{[4-(dimethylamino)phenyl][4-(dimethyliminio)cyclohexa-2,5-dien-1-ylidene]methyl}phenoxy)butanoyl]amino}ethyl)amino]-6-oxohexyl}-2-[(1E,3Z)-3-(1-ethyl-3,3-dimethyl-5-sulfonato-1,3-dihydro-2H-indol-2-ylidene)prop-1-en-1-yl]-3,3-dimethyl-3H-indolium-5-sulfonate] | 1.24 | 1.08 | 1.41 | 1.00 | about 2 | 6170 | 2793 | 15946 | 7455 | 2.17 | 140,000 M^−1cm^−1 | 552 | 0.057 | < 1 | 123 | 95 | 108 | 65 | 
CCN1/C(=C\C=C\C2=[N+](CCCCCC(=O)O)c3ccc(S(=O)(=O)O)cc3C2(C)C)C(C)(C)c2cc(S(=O)(=O)[O-])ccc21 [Cy3] |  |  |  |  |  |  |  |  |  |  |  |  |  |  |  |  |  |  | Estimated Diam. (nm) [7]: 1.5 nm
CN(C)c1ccc(C(=C2C=CC(=[N+](C)C)C=C2)c2ccc(OCCCC(=O)NCCNC(=O)CCC(=O)NCCOCCOCCN)cc2)cc1 [M, malachite green diethyleneglycolamine] |  |  | 1.44 | 1.00 |  | 335 | 2635 | 435 | 7089 | 0.07 | 79,000 M^−1cm^−1 | 642 | 0.055 | < 1 | 111 | 76 | 118 | 74 | extinction coefficient (PBS+): 50,700 M^−1cm^−1; extinction coefficient (ethanol/5% HAc): 91,500 M^−1cm^−1
CN(C)c1ccc(C(=C2C=CC(=[N+](C)C)C=C2)c2ccccc2)cc1 [Malachite green] |  |  |  |  |  |  |  |  |  |  |  |  |  |  |  |  |  |  | activation to fluorescent state (fold) (selected scFv): > 15,000 fold
CN(C)c1ccc(C(C#Cc2ccc(N(C)CCOCCCC(=O)O)cc2)=C2C=CC(=[N+](C)C)C=C2)cc1.[Cl-] [acetylenic derivative of malachite green] |  |  |  |  |  |  |  |  |  |  |  |  |  |  |  |  |  |  | quantum yield in water [8]: ≤ 0.003

Source: patent US9249306B2, “Quenched dendrimeric dyes for florescence detection” (Carnegie Mellon University, priority 2009, dated 2016)
